Experimental data taken from EP4268810A1 (priority 2022, dated 2023).
Read-outs that look alike come from different tables or passages of the source.

Assays:
[1] = tested on: SARS-CoV-2 clinical omicron isolate; assay: microbe, parasite or virus in culture; conditions: Severe acute respiratory syndrome coronavirus 2, Calu-3
[2] = tested on: SARS-CoV-2 clinical omicron isolate

| SMILES | IC50 [1] | Therapeutic range: CC50/IC50, CTG ([2]; SARS-CoV-2 omicron in Calu-3 cells, CC50 by CTG) | Therapeutic range: CC50/IC50, IncuCyte ([2]; SARS-CoV-2 omicron in Calu-3 cells, CC50 by IncuCyte) | Therapeutic range: CC50/IC50, MTT ([2]; SARS-CoV-2 omicron in Calu-3 cells, CC50 by MTT) | Therapeutic range: CC50/IC50, CTG ([2]; human, calu-3 cells) | Therapeutic range: CC50/IC50, IncuCyte ([2]; human, calu-3 cells) | Therapeutic range: CC50/IC50, MTT ([2]; human, calu-3 cells) |
| --- | --- | --- | --- | --- | --- | --- | --- |
| COc1[nH]c(=O)c(C(=O)C(C)CC(C)C(Cl)CCl)c(O)c1OC (centres unmarked) [Atpenin A5] | 680 nM | CTG: 1.3 | IncuCyte: > 117.6 | MTT: 1.8 |  |  |  |
| [H]/N=C(/N)N/C(=N/[H])NCCc1ccccc1 [Phenformin, phenformin] | 1350 nM |  |  |  | CTG: 1674 | IncuCyte: 1111 | MTT: 1123 |
